# Legend:
# Experiment in all cases: Nanosyn kinase profiling
# Format in all cases: biochemical
# Conditions in all cases: read-out: Percentage inhibition; for inhibition at 0.1 µM: 0.1 µM inhibitor; for inhibition at 1 µM: 1 µM inhibitor
# BRSK1 = target: T1, BRSK1 (Homo sapiens, UniProt Q8TDC3)
# T1 construct: purchased Nanosyn (enzymatic panel); SGC in-house recombinant human kinases (DSF panel); Invitrogen (ALK1-6)
# T1 sequence (Q8TDC3 1-778): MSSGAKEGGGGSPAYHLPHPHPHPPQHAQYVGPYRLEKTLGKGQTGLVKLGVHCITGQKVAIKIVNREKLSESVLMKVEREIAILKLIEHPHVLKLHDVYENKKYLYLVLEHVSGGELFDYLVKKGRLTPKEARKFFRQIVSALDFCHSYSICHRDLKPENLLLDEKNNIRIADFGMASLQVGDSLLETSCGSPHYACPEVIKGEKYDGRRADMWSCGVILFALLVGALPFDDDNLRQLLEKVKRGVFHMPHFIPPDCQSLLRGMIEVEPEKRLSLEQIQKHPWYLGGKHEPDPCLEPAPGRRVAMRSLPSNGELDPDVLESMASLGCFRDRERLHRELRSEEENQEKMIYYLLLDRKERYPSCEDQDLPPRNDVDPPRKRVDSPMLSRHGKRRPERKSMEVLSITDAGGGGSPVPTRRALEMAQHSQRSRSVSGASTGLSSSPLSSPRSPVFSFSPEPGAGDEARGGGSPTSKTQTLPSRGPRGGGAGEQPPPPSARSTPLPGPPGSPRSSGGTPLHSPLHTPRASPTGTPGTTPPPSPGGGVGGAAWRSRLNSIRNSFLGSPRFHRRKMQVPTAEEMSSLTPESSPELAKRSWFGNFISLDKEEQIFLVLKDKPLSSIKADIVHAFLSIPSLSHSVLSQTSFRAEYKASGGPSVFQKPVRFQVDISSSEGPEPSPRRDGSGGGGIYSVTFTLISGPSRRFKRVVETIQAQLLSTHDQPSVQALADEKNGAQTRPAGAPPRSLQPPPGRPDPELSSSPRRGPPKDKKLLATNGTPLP
# Summary of the method: (§1)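 Percent inhibition of each kinase was measured with the inhibitor at 0.1 µM and at 1 µM, as part of a 200-kinase human selectivity panel.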
# CK2 = target: T2, CK2 (Homo sapiens, UniProt P68400)
# T2 construct: purchased Nanosyn (enzymatic panel); SGC in-house recombinant human kinases (DSF panel); Invitrogen (ALK1-6)
# T2 sequence (P68400 whole entry): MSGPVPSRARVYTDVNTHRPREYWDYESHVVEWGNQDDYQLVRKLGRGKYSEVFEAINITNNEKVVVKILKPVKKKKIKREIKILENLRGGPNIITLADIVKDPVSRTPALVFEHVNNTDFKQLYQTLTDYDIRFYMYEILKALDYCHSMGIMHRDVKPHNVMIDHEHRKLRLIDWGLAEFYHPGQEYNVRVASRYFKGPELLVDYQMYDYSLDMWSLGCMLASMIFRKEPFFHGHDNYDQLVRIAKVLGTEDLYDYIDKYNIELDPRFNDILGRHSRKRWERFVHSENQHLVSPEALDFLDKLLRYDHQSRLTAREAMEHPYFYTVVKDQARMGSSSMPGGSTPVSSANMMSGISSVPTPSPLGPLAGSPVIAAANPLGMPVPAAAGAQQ
# T2 sequence (P67870 whole entry partner): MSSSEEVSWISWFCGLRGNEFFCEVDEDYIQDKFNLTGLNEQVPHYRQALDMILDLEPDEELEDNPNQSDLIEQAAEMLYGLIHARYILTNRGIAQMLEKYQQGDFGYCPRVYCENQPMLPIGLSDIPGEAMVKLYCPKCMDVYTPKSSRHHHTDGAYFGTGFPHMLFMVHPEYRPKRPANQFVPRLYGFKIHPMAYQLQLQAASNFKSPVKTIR
# Summary of the method: as §1
# DAPK1 = target: T3, DAPK1 (Homo sapiens, UniProt P53355)
# T3 construct: purchased Nanosyn (enzymatic panel); SGC in-house recombinant human kinases (DSF panel); Invitrogen (ALK1-6)
# Summary of the method: as §1
# FGFR3 = target: T4, FGFR3 (Homo sapiens, UniProt P22607)
# T4 construct: purchased Nanosyn (enzymatic panel); SGC in-house recombinant human kinases (DSF panel); Invitrogen (ALK1-6)
# T4 sequence (P22607 23-806): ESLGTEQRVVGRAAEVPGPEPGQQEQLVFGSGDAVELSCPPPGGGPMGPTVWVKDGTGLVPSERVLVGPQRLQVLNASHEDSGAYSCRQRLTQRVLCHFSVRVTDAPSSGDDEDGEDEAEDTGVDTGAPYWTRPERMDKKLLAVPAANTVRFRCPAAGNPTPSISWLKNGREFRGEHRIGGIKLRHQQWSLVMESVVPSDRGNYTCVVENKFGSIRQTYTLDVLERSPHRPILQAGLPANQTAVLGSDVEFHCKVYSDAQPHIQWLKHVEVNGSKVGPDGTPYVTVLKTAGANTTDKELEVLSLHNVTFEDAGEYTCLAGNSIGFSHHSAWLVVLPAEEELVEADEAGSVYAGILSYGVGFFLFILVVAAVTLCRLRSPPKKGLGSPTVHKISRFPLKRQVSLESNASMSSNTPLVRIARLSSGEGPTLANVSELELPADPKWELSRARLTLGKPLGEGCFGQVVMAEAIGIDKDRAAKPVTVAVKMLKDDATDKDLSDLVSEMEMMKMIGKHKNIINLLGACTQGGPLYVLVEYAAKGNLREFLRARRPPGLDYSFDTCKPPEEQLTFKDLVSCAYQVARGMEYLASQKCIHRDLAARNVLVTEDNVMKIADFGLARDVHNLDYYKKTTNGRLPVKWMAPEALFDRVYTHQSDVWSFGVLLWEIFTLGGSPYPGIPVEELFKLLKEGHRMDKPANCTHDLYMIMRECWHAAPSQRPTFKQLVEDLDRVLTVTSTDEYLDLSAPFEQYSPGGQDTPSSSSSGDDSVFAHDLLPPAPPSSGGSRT
# Summary of the method: as §1
# GSK3β = target: T5, GSK3β (Homo sapiens, UniProt P49841)
# T5 construct: purchased Nanosyn (enzymatic panel); SGC in-house recombinant human kinases (DSF panel); Invitrogen (ALK1-6)
# T5 sequence (P49841 whole entry): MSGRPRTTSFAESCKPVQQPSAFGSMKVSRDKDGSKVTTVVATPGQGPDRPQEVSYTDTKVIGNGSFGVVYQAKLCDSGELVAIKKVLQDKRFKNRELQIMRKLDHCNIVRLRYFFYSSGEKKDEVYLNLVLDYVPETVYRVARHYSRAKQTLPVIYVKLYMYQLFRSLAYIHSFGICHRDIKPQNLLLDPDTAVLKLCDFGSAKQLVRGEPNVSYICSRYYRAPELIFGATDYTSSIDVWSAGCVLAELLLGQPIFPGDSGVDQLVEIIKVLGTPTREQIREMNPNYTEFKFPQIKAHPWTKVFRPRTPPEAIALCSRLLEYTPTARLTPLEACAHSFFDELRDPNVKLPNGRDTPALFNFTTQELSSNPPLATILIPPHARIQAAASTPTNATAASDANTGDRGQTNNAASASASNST
# Summary of the method: as §1
# MEK1 = target: T6, MEK1 (Homo sapiens, UniProt Q02750)
# T6 construct: purchased Nanosyn (enzymatic panel); SGC in-house recombinant human kinases (DSF panel); Invitrogen (ALK1-6)
# T6 sequence (Q02750 whole entry): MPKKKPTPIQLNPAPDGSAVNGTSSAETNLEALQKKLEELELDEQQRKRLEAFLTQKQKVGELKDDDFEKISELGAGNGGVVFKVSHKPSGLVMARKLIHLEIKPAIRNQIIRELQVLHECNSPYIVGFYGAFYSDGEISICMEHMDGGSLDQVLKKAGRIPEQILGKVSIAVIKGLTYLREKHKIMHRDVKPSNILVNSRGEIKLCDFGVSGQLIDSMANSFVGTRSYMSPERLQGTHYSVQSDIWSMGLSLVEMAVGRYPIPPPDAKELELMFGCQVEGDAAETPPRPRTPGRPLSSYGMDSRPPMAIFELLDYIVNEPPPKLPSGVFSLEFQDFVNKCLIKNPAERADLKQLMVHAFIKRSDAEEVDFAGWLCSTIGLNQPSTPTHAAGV
# Summary of the method: as §1
# MSSK1 = target: T7, MSSK1 (Homo sapiens, UniProt Q9UPE1)
# T7 construct: purchased Nanosyn (enzymatic panel); SGC in-house recombinant human kinases (DSF panel); Invitrogen (ALK1-6)
# T7 sequence (Q9UPE1 whole entry): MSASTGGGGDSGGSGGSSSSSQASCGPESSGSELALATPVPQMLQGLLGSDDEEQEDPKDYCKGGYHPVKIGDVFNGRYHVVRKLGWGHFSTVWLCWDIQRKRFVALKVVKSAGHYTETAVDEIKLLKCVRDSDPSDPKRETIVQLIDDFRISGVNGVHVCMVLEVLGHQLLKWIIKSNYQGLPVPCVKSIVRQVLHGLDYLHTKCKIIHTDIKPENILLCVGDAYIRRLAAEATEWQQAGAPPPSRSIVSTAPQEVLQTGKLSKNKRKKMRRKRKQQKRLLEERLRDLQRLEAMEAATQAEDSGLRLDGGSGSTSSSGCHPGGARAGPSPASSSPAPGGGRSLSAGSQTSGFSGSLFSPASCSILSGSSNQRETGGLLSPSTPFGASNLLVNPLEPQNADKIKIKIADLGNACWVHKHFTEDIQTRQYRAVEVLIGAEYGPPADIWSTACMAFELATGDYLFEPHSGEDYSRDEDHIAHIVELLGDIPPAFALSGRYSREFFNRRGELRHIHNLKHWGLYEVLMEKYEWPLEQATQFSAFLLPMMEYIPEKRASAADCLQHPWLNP
# Summary of the method: as §1
# MUSK = target: T8, MUSK (Homo sapiens, UniProt O15146)
# T8 construct: purchased Nanosyn (enzymatic panel); SGC in-house recombinant human kinases (DSF panel); Invitrogen (ALK1-6)
# T8 sequence (O15146 24-869): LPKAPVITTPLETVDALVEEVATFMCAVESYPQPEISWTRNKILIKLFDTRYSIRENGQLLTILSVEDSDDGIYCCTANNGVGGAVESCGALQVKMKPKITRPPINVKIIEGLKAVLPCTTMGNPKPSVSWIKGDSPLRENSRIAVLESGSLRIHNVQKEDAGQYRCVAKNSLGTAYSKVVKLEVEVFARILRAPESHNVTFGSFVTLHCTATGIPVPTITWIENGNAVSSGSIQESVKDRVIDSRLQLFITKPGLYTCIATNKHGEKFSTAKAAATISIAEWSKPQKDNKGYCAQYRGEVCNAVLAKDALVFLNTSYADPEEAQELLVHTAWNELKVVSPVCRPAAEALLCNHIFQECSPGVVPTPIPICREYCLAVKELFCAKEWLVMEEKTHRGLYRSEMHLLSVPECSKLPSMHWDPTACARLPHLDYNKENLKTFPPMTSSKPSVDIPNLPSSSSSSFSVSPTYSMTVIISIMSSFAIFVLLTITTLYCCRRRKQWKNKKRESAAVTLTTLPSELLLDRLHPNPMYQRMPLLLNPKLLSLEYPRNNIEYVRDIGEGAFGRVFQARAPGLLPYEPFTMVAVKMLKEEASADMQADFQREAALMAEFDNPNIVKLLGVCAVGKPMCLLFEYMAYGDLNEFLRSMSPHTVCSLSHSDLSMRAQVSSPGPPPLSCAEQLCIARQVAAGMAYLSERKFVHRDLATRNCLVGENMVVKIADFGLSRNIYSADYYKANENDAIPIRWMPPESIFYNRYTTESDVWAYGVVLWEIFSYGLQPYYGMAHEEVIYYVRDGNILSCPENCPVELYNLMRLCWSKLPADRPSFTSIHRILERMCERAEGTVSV
# Summary of the method: as §1
# P38γ = target: T9, P38γ (Homo sapiens, UniProt P53778)
# T9 construct: purchased Nanosyn (enzymatic panel); SGC in-house recombinant human kinases (DSF panel); Invitrogen (ALK1-6)
# T9 sequence (P53778 1-367): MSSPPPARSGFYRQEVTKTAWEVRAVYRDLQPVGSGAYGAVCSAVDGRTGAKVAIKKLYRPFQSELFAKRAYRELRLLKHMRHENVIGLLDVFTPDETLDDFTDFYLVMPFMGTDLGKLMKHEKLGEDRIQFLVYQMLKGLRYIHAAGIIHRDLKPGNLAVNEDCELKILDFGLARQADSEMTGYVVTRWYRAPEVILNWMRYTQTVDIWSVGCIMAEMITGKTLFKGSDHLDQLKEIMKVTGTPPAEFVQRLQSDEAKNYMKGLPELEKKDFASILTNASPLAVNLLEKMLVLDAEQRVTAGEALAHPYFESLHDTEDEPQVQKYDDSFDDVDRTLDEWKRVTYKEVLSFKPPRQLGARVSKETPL
# Summary of the method: as §1
# PAK2 = target: T10, PAK2 (Homo sapiens, UniProt Q13177)
# T10 construct: purchased Nanosyn (enzymatic panel); SGC in-house recombinant human kinases (DSF panel); Invitrogen (ALK1-6)
# T10 sequence (Q13177 whole entry): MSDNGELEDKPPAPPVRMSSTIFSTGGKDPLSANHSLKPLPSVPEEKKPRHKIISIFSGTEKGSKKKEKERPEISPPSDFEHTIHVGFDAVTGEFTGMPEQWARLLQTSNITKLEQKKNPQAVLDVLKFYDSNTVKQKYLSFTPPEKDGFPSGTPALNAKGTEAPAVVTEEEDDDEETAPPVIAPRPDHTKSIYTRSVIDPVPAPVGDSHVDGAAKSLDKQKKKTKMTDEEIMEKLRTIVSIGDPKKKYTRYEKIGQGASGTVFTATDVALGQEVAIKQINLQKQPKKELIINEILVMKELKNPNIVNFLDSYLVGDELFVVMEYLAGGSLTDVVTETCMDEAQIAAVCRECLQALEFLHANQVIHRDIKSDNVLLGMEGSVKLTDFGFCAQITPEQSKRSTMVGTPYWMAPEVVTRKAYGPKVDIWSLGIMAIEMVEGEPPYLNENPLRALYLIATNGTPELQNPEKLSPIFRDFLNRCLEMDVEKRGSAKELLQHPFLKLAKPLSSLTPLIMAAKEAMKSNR
# Summary of the method: as §1
# PTK5 = target: T11, PTK5 (Homo sapiens, UniProt P42685)
# T11 construct: purchased Nanosyn (enzymatic panel); SGC in-house recombinant human kinases (DSF panel); Invitrogen (ALK1-6)
# T11 sequence (P42685 whole entry): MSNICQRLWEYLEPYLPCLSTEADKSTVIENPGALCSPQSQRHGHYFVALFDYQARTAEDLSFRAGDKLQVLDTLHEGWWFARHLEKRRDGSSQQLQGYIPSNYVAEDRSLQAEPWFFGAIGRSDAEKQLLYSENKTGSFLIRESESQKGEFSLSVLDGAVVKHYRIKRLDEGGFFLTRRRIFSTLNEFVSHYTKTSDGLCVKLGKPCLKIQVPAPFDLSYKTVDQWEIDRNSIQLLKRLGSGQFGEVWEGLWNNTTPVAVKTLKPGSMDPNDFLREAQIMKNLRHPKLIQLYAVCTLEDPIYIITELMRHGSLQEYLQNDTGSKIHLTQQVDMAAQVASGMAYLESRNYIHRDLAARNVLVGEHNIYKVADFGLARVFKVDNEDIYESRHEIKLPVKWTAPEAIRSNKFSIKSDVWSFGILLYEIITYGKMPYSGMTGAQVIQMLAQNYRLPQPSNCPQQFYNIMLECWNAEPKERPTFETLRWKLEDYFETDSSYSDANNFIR
# Summary of the method: as §1
# TNK2 = target: T12, TNK2 (Homo sapiens, UniProt Q07912)
# T12 construct: purchased Nanosyn (enzymatic panel); SGC in-house recombinant human kinases (DSF panel); Invitrogen (ALK1-6)
# T12 sequence (Q07912 whole entry): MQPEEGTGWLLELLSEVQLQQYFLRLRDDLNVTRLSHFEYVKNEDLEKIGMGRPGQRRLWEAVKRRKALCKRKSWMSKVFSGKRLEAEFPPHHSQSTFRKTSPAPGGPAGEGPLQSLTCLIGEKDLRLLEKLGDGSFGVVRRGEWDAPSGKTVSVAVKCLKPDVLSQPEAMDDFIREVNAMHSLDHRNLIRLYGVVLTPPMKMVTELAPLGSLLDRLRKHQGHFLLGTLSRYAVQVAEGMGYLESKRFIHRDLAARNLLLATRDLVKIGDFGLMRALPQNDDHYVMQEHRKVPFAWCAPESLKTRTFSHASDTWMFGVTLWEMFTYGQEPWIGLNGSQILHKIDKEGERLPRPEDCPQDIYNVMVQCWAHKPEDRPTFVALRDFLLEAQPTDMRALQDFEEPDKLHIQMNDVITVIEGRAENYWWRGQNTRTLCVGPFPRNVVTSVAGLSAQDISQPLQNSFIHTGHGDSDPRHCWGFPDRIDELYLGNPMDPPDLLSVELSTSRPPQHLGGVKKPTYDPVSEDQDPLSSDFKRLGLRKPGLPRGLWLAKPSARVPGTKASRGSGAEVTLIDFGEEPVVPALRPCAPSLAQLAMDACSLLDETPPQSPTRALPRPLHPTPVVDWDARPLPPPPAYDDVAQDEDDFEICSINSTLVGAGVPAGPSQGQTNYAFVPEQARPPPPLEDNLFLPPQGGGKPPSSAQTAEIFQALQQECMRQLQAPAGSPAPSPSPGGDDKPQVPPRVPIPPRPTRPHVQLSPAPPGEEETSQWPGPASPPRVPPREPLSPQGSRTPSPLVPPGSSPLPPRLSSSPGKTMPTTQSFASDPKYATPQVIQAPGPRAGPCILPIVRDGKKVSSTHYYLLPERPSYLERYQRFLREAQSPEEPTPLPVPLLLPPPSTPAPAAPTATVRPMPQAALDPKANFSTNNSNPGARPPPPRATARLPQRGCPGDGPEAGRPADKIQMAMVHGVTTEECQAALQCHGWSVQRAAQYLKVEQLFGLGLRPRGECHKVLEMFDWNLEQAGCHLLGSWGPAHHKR
# Summary of the method: as §1
SMILES,inhibition at 0.1 µM (BRSK1),inhibition at 1 µM (BRSK1),inhibition at 0.1 µM (CK2),inhibition at 1 µM (CK2),inhibition at 0.1 µM (DAPK1),inhibition at 1 µM (DAPK1),inhibition at 0.1 µM (FGFR3),inhibition at 1 µM (FGFR3),inhibition at 0.1 µM (GSK3β),inhibition at 1 µM (GSK3β),inhibition at 0.1 µM (MEK1),inhibition at 1 µM (MEK1),inhibition at 0.1 µM (MSSK1),inhibition at 1 µM (MSSK1),inhibition at 0.1 µM (MUSK),inhibition at 1 µM (MUSK),inhibition at 0.1 µM (P38γ),inhibition at 1 µM (P38γ),inhibition at 0.1 µM (PAK2),inhibition at 1 µM (PAK2),other results
"COc1cc(-c2cc(-c3cccc(O)c3)cnc2N)cc(OC)c1OC [K02288, 3-[6-amino-5-(3,4,5-trimethoxy-phenyl)-pyridin-3-yl]-phenol]",2.3%,0%,6.2%,2.8%,-1%,-1%,-2%,0.2%,0.5%,1.6%,-1%,10%,1.8%,0%,1.2%,-1%,-1%,-1%,-1%,-1%,inhibition at 0.1 µM (PTK5): 2.2%; inhibition at 1 µM (PTK5): 22%; inhibition at 0.1 µM (TNK2): 3.6%; inhibition at 1 µM (TNK2): 31%
c1ccc2c(-c3cnn4cc(-c5ccc(N6CCNCC6)cc5)cnc34)ccnc2c1 [LDN-193189],3%,17%,0.7%,4.2%,1.5%,0.4%,5%,16%,2.7%,2.1%,1.4%,1%,-3%,1.5%,5.8%,26%,1.2%,1.3%,0%,0%,inhibition at 0.1 µM (PTK5): 4.1%; inhibition at 1 µM (PTK5): 14%; inhibition at 0.1 µM (TNK2): 2%; inhibition at 1 µM (TNK2): 10%

# From publication PMC3639963, “A New Class of Small Molecule Inhibitor of BMP Signaling” (PLoS ONE, 2013)
